Experimental data as given in patent US7435837B2, “Dihydrobenzofuranyl alkanamine derivatives and methods for using same” (Wyeth, priority 2003, dated 2008).
Like-named read-outs stand apart in the source and are kept apart here.

Assays:
[1] = target: T1, human 5-hydroxytryptamine-2C (h5-HT2C) receptor (Homo sapiens, UniProt P28335); assay: [125I]DOI binding to membranes of CHO cells expressing the human 5-HT2C receptor; details: [125I]DOI radioligand, CHO cell membranes, room temperature 60 min; read-out: 5-HT2C Affinity Ki
T1 construct: expressed in transfected cells; host or cells: CHO (Chinese Hamster Ovary) cells; membranes
T1 sequence (P28335 33-458): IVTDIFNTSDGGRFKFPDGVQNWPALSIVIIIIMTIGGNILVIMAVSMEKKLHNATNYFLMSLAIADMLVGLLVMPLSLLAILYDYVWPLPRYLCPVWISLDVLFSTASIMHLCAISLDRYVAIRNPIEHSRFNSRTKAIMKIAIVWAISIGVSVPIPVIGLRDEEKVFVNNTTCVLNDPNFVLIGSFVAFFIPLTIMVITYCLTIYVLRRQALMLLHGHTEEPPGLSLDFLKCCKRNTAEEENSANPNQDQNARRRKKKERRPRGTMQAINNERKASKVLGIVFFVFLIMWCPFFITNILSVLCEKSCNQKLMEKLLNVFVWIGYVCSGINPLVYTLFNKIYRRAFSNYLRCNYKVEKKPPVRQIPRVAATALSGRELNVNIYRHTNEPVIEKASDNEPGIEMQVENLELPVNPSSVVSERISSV

human 5-HT2C receptor = target: T2, human 5-HT2C receptor (Homo sapiens, UniProt P28335); assay: 5-HT2C receptor-stimulated calcium mobilization (FLIPR) in CHO cells; type: cell-based; details: for Emax: CHO; for EC50: calcium mobilization, CHO cells stably expressing human 5-HT2C, read-out: 5-HT2C Function EC50;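 as to all read-outs here: Fluo-3-AM fluorescence read on FLIPR every 1 s, agonist added after 10 baseline reads, response taken as peak minus lowest raw fluorescence count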
T2 sequence (P28335 33-458): T1 sequence (P28335 33-458)

[2] = percentage of the response observed with a maximally effective concentration of 5-HT, read-out: 5-HT2C Function Emax (%)
[3] = read-out: 5-HT2C Function Emax (%), percentage of the response observed with a maximally effective concentration of 5-HT

SMILES | Ki [1] [nM] | Emax (human 5-HT2C receptor; [2]) [%] | EC50 (human 5-HT2C receptor) [nM] | Emax (human 5-HT2C receptor; [3]) [%]
CCNCC1Cc2cccc(-c3c(Cl)cccc3Cl)c2O1 (racemic) [Example 390, (±)-N-{[7-(2,6-dichlorophenyl)-2,3-dihydro-1-benzofuran-2-yl]methyl}ethanamine] | 1.8 | 80 | 2 | –
CC(C)NCC1Cc2cccc(-c3c(Cl)cccc3Cl)c2O1 (racemic) [Example 393, (±)-N-{[7-(2,6-dichlorophenyl)-2,3-dihydro-1-benzofuran-2-yl]methyl}propan-2-amine] | 21.5 | 60 | 45 | –
Cc1ccccc1-c1c(F)ccc2c1OC(CN)C2 (racemic) [Example 395, (±)-{[6-fluoro-7-(2-methylphenyl)-2,3-dihydro-1-benzofuran-2-yl]methyl}amine] | 0.3 | 90 | 0.4 | –
NCC1Cc2ccc(F)c(-c3ccccc3Cl)c2O1 (racemic) [Example 398, (±)-{[7-(2-chlorophenyl)-6-fluoro-2,3-dihydro-1-benzofuran-2-yl]methyl}amine] | 0.04 | 100 | 0.1 | –
CNCC1Cc2ccc(F)c(-c3ccccc3C)c2O1 (racemic) [Example 401, (±)-{[6-fluoro-7-(2-methylphenyl)-2,3-dihydro-1-benzofuran-2-yl]methyl}methylamine] | 0.38 | 90 | 0.7 | –
CNCC1Cc2cccc(-c3cccc(OC)c3)c2O1 (racemic) [Example 417, (±)-[(N-methyl-1-[7-(3-methoxyphenyl)-2,3-dihydro-1-benzofuran-2-yl]methanamine] | 3.7 | 60 | 183 | –
CNCC1Cc2cccc(-c3ccc(C)cc3)c2O1 (racemic) [Example 418, (±)-[(N-methyl-1-[7-(4-methylphenyl)-2,3-dihydro-1-benzofuran-2-yl]methanamine] | 1.1 | 80 | 59 | –
CNCC1Cc2cccc(-c3ccc(OC)cc3)c2O1 (racemic) [Example 421, (±)-[(N-methyl-1-[7-(4-methoxyphenyl)-2,3-dihydro-1-benzofuran-2-yl]methanamine] | 1.5 | 70 | 93 | –
CNCC1Cc2cc(F)cc(-c3ccccc3F)c2O1 (racemic) [Example 438, (±)-{[5-fluoro-7-(2-fluorophenyl)-2,3-dihydro-1-benzofuran-2-yl]methyl}methylamine] | 2.4 | 70 | 68 | –
CNCC1Cc2cc(F)cc(-c3ccccc3C)c2O1 (racemic) [Example 440, (±)-{[5-fluoro-7-(2-methylphenyl)-2,3-dihydro-1-benzofuran-2-yl]methyl}methylamine] | 1.2 | 100 | 9 | –
CNCC1Cc2cc(F)cc(-c3ccccc3OC)c2O1 (racemic) [Example 443, (±)-{[5-fluoro-7-(2-methoxyphenyl)-2,3-dihydro-1-benzofuran-2-yl]methyl}methylamine] | 4.8 | 90 | 5 | –
CNCC1Cc2cc(F)cc(-c3ccc(Cl)cc3Cl)c2O1 (racemic) [Example 445, (±)-[7-(2,4-dichlorophenyl)-5-fluoro-2,3-dihydro-1-benzofuran-2-yl]methyl}methylamine] | 0.48 | – | 1 | 90
CNCC1Cc2cc(F)cc(-c3cc(F)ccc3F)c2O1 (racemic) [Example 448, (±)-{[7-(2,5-difluorophenyl)-5-fluoro-2,3-dihydro-1-benzofuran-2-yl]methyl}methylamine] | 7 | 70 | 78 | –
CNCC1Cc2cc(F)cc(-c3cc(Cl)ccc3Cl)c2O1 (racemic) [Example 449, (±)-{[7-(2,5-dichlorophenyl)-5-fluoro-2,3-dihydro-1-benzofuran-2-yl]methyl}methylamine] | 1 | 90 | 2 | –
CNCC1Cc2cc(F)cc(-c3cc(C)ccc3C)c2O1 (racemic) [Example 452, (±)-{[7-(2,5-dimethylphenyl)-5-fluoro-2,3-dihydro-1-benzofuran-2-yl]methyl}methylamine] | 24 | 80 | 153 | –
CNCC1Cc2cc(F)cc(-c3c(Cl)cccc3Cl)c2O1 (racemic) [Example 454, (±)-{[7-(2,6-dichlorophenyl)-5-fluoro-2,3-dihydro-1-benzofuran-2-yl]methyl}methylamine] | 0.26 | – | 0.39 | 90
CNCC1Cc2cc(F)cc(-c3cc(OC)ccc3C)c2O1 (racemic) [Example 456, (±)-{[5-fluoro-7-(5-methoxy-2-methylphenyl)-2,3-dihydro-1-benzofuran-2-yl]methyl}methylamine] | 4.1 | 100 | 50 | –
CNCC1Cc2cc(F)cc(-c3cc(C)ccc3OC)c2O1 (racemic) [Example 457, (±)-{[5-fluoro-7-(2-methoxy-5-methylphenyl)-2,3-dihydro-1-benzofuran-2-yl]methyl}methylamine] | 38 | 50 | 740 | –

Further lines, with some results ahead:

Ki [1] [nM] | Emax (human 5-HT2C receptor; [2]) [%] | EC50 (human 5-HT2C receptor) [nM] | SMILES | Emax (human 5-HT2C receptor; [3]) [%]
0.24 | 90 | 0.1 | CNCC1Cc2ccc(F)c(-c3ccccc3Cl)c2O1 (racemic) [Example 402, (±)-{[6-fluoro-7-(2-chlorophenyl)-2,3-dihydro-1-benzofuran-2-yl]methyl}methylamine] | –
0.51 | 100 | 9 | CNCC1Cc2cccc(-c3ccccc3C)c2O1 (racemic) [Example 406, (±)-[(N-methyl-1-[7-(2-methylphenyl)-2,3-dihydro-1-benzofuran-2-yl]methanamine] | –
3 | 90 | 22 | CNCC1Cc2cccc(-c3ccccc3Cl)c2O1 (racemic) [Example 409, (±)-[(N-methyl-1-[7-(2-chlorophenyl)-2,3-dihydro-1-benzofuran-2-yl]methanamine] | –
5.3 | 90 | 34 | CNCC1Cc2cccc(-c3ccccc3F)c2O1 (racemic) [Example 412, (±)-[(N-methyl-1-[7-(2-fluorophenyl)-2,3-dihydro-1-benzofuran-2-yl]methanamine] | –
21 | 90 | 8 | CNCC1Cc2cccc(-c3ccccc3OC)c2O1 (racemic) [Example 413, (±)-[(N-methyl-1-[7-(2-methoxyphenyl)-2,3-dihydro-1-benzofuran-2-yl]methanamine] | –
3.4 | 60 | 781 | CNCC1Cc2cccc(-c3cccc(C)c3)c2O1 (racemic) [Example 414, (±)-[(N-methyl-1-[7-(3-methylphenyl)-2,3-dihydro-1-benzofuran-2-yl]methanamine] | –
1.1 | 70 | 109 | CNCC1Cc2cccc(-c3cccc(F)c3)c2O1 (racemic) [Example 415, (±)-[(N-methyl-1-[7-(3-fluorophenyl)-2,3-dihydro-1-benzofuran-2-yl]methanamine] | –
1.6 | 70 | 467 | CNCC1Cc2cccc(-c3cccc(Cl)c3)c2O1 (racemic) [Example 416, (±)-[(N-methyl-1-[7-(3-chlorophenyl)-2,3-dihydro-1-benzofuran-2-yl]methanamine] | –
3.8 | 80 | 1360 | CNCC1Cc2cccc(-c3ccc(F)cc3)c2O1 (racemic) [Example 419, (±)-[(N-methyl-1-[7-(4-fluorophenyl)-2,3-dihydro-1-benzofuran-2-yl]methanamine] | –
7 | 80 | 504 | CNCC1Cc2cccc(-c3ccc(Cl)cc3)c2O1 (racemic) [Example 420, (±)-[(N-methyl-1-[7-(4-chlorophenyl)-2,3-dihydro-1-benzofuran-2-yl]methanamine] | –
6.1 | 70 | 28 | CNCC1Cc2cccc(-c3cccc(OC)c3OC)c2O1 (racemic) [Example 423, (±)-[(N-methyl-1-[7-(2,3-dimethoxyphenyl)-2,3-dihydro-1-benzofuran-2-yl]methanamine] | –
2.8 | 92 | 16 | CNCC1Cc2cccc(-c3cc(Cl)ccc3Cl)c2O1 (racemic) [Example 429, (±)-[(N-methyl-1-[7-(2,5-dichlorophenyl)-2,3-dihydro-1-benzofuran-2-yl]methanamine] | –
3.5 | 100 | 1 | CNCC1Cc2cccc(-c3c(Cl)cccc3Cl)c2O1 (racemic) [Example 433, (±)-[(N-methyl-1-[7-(2,6-dichlorophenyl)-2,3-dihydro-1-benzofuran-2-yl]methanamine] | –
0.45 | 90 | 6 | CNCC1Cc2cc(F)cc(-c3ccccc3Cl)c2O1 (racemic) [Example 439, (±)-{[5-fluoro-7-(2-chlorophenyl)-2,3-dihydro-1-benzofuran-2-yl]methyl}methylamine] | –
